Data as given in patent publication US20100222322A1, “Non-Nucleoside Reverse Transcriptase Inhibitors” (MERCK & CO., INC., priority 2005, published 2010).
Where two headings read alike, the source gives them in different places.

Legend:
[1] = biological target: T1, mutant HIV reverse transcriptase with the Y181C mutation (Human immunodeficiency virus type 1 group M subtype B, UniProt P04585, Y768C); assay: Analogous RT inhibition assay, Y181C mutant; assay type: biochemical
T1 construct: mutations that occur in the reverse transcriptase segment of the pol gene; made in house
Experimental: (§1) 100 μL reaction mixtures were initiated with a combination of primer-template substrate (10 nM final concentration) and dNTPs (0.6 μM dNTPs, 0.75 μM [^3H]-dGTP). The heterodimeric nucleic acid substrate was generated by annealing the DNA primer pD500 (described in Shaw-Reid et al., J. Biol. Chem., 278: 2777-2780; obtained from Integrated DNA Technologies) to t500, a 500 nucleotide RNA template created by in vitro transcription (see Shaw-Reid et al., J. Biol. Chem., 278: 2777-2780). After 1 hour incubation at 37° C., reactions were quenched by 10 μL streptavidin scintillation proximity assay beads (10 mg/mL, from Amersham Biosciences) in 0.5 M EDTA, pH 8. Microtiter plates were incubated an additional 10 minutes at 37° C. prior to quantification via Topcount (Packard).
(§2) Analogous assays were conducted substituting mutant HIV strains to determine the […] inhibition of compounds of the present invention against mutant HIV reverse transcriptase. In one strain the reverse transcriptase has the Y181C mutation and in the other strain the reverse transcriptase has the K103N mutation. The mutations were generated with the […] site-directed mutagenesis kit (Stratagene). […] The compounds set forth in the other Examples were not tested in the Y181C assay. […] The compounds set forth in the other Examples were not tested in the K103N assay.

[2] = biological target: T2, mutant HIV reverse transcriptase with the K103N mutation (Human immunodeficiency virus type 1 group M subtype B, UniProt P04585, K690N); assay: Analogous RT inhibition assay, K103N mutant; assay type: biochemical
T2 construct: mutations that occur in the reverse transcriptase segment of the pol gene; made in house
Experimental: as §1, §2

[3] = tested on: HIV replication in T-lymphoid cells; assay: Spread assay: inhibition of acute HIV infection of T-lymphoid cells; assay type: cell-based; settings: Human immunodeficiency virus 1; acute HIV infection of T-lymphoid cells; tested up to 10 micromolar; read-out: IC95, spread assay (inhibition of HIV replication)
Experimental: An assay for the inhibition of acute HIV infection of T-lymphoid cells (alternatively referred to herein as the “spread assay”) was conducted in accordance with Vacca, J. P. et al., Proc. Natl. Acad. Sci. USA 1994, 91: 4096. […] The compounds of Examples 26, 29, 30, 33-35 and 62 were tested in the spread assay up to 10 micromolar, but specific IC95 values were not obtained; i.e., the IC95 values were greater than 10 micromolar. The compounds of Examples 47 and 61 were not tested.

| SMILES | IC50 [1] | IC50 [2] | IC95 [3] | IC50 ([1]; RT with Y181C mutation, tested up to 20 micromolar, read-out: IC50, Y181C mutant assay) | IC50 ([2]; RT with K103N mutation, tested up to 20 micromolar, read-out: IC50, K103N mutant assay) |
| --- | --- | --- | --- | --- | --- |
| O=C(NCc1ccncc1)c1[nH]c2ccc(Br)cc2c1S(=O)(=O)N1CCCC1 [Example 64, 5-bromo-N-(pyridin-4-ylmethyl)-3-(pyrrolidin-1-ylsulfonyl)-1H-indole-2-carboxamide] | < 1000 nM | < 1000 nM | < 1 µM | – | – |
| O=C(NCc1cncs1)c1[nH]c2ccc(Br)cc2c1S(=O)(=O)N1CCCC1 [Example 65, 5-bromo-3-(pyrrolidin-1-ylsulfonyl)-N-(1,3-thiazol-5-ylmethyl)-1H-indole-2-carboxamide] | < 1000 nM | < 1000 nM | < 1 µM | – | – |
| N#Cc1ccc2[nH]c(C(N)=O)c(S(=O)(=O)N3CCCC3)c2c1 [Example 68, 5-Cyano-3-(pyrrolidin-1-ylsulfonyl)-1H-indole-2-carboxamide] | – | – | < 1 µM | > 20000 nM | 1000 to 20000 nM |
